Measured values from patent US9808527B2, “Methods and compositions for treating HIV infections” (priority 2006, dated 2017).

Test system: HIV-1NL4-3
Experiment: In vitro selection of HIV-1 variants resistant to GRL-98065
Type: cell-based
From the text: Generation of PI-resistant HIV-1 in vitro. MT-4 cells (10^5/mL) were exposed to HIV-1NL4-3 (500 TCID50) and cultured in the presence of various PIs at an initial concentration of its IC50 values. Viral replication was monitored by determination of the amount of p24 Gag produced by MT-4 cells. The culture supernatants were harvested on day 7 and used to infect fresh MT-4 cells for the next round of culture in the presence of increasing concentrations of each drug. […] Proviral DNA samples obtained from the lysates of infected cells were subjected to nucleotide sequencing. This drug selection procedure was carried out until the drug concentration reached 1 or 5 μM.
The protease-encoding region of the proviral DNA isolated from infected MT-4 cells was cloned and sequenced at passages 5, 10, 15, 20, 25, 30, 33, and 40. […] Met46 is located on the flap region of the enzyme.

CC(C)CN(CC(O)C(Cc1ccccc1)NC(=O)OC1COC2OCCC12)S(=O)(=O)c1ccc2c(c1)OCO2 (centres unmarked) [GRL-98065]
fold increase of drug concentration tolerated by selected virus (40 passages in MT-4 cells, start 0.0005 μM): 1,000
drug concentration at which selected virus was still propagating (after 40 passages in MT-4 cells): 0.5 µM
